Data on two compounds can be found in paper PMC4659538, “Human GAPDH Is a Target of Aspirin’s Primary Metabolite Salicylic Acid and Its Derivatives” (PLoS ONE, 2015).

The target of test [1] is T1, human Glyceraldehyde 3-Phosphate Dehydrogenase (HsGAPDH) (Homo sapiens, UniProt P04406).
T1 construct: gene GAPDH; N-terminally His-tagged human GAPDH, expressed in E. coli
Description: UV photoaffinity crosslinking ([…]) with anti-SA immunoblot. Type of test: binding. (In general: In western blotting, separated proteins are transferred to a membrane and probed.)

In test [2] the target is T1, human Glyceraldehyde 3-Phosphate Dehydrogenase (HsGAPDH). Description: SPR competition with immobilized 3AESA; competition of 4AzSA photoaffinity crosslinking. Format: binding.

T1 sequence (P04406 whole entry): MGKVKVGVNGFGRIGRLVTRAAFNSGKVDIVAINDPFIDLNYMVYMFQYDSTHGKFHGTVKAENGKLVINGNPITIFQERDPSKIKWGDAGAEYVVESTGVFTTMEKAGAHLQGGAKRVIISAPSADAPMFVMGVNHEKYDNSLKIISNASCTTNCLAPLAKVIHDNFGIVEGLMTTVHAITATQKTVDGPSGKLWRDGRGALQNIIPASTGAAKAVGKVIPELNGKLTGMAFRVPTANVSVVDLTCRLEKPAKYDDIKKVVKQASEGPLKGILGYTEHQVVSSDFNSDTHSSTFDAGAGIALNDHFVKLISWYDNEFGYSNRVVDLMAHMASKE

Turning to `[N-]=[N+]=Nc1ccc(C(=O)O)c(O)c1` [4AzSA, 4-azido salicylic acid], the “UV photoaffinity crosslinking (0.05 mM) with anti-SA immunoblot” value in test [1] was “Recombinant HsGAPDH crosslinked with 4AzSA, and this crosslinking was suppressed in the presence of increasing levels of SA”.

As for `O=C(O)c1ccccc1O` [SA, Salicylic acid], the “SPR competition with immobilized 3AESA; competition of 4AzSA photoaffinity cross” value in test [2] is on record as “suppression of this interaction required millimolar concentrations of SA (Fig 2B)”.
